Assay results taken from US10836764B2, “5-HT2C receptor agonists and compositions and methods of use” (Arena Pharmaceuticals, Inc., priority 2016, dated 2020).
Where two headings read alike, the source gives them in different places.

Assays:
5-HT2A receptor [1] = biological target: T1, 5-HT2A receptor (Homo sapiens (Human), UniProt P28223); assay: DOI radioligand binding assay, 5-HT2A; conditions: [125I]DOI competition, HEK293 cell membranes; read-out: DOI Binding 5HT2A
Protocol: For the compounds of Table A, the following procedure was used. HEK293 cells stably expressing recombinant 5-HT2 receptors were harvested, suspended in ice-cold phosphate buffered saline, pH 7.4 (PBS), and then centrifuged at 48,000 g for 20 min at 4° C. The resulting cell pellet was then re-suspended in wash buffer containing 20 mM HEPES, pH 7.4 and 0.1 mM EDTA, homogenized on ice using a Brinkman Polytron, and centrifuged (48,000 g for 20 min at 4° C.). The pellet was then resuspended in 20 mM HEPES, pH 7.4, homogenized on ice, and centrifuged (48,000 g for 20 min at 4° C.). Crude membrane pellets were stored at −80° C. until used for radioligand binding assays.
For the compounds of Table A, the following procedure was used. […] Experiments comprised addition of 95 μL of assay buffer (20 mM HEPES, pH 7.4, 10 mM MgCl2), 50 μL of membranes, 50 μL of radioligand stock, and 5 μL of test compound diluted in assay buffer to 96-well microtiter plates, which were then incubated for 1 h at room temperature. Assay incubations were terminated by rapid filtration through PerkinElmer F/C filtration plates under reduced pressure using a 96-well Packard filtration apparatus, followed by washing three times with ice cold assay buffer. Plates were then dried at 45° C. for a minimum of 2 h. Finally, 25 μL of BetaScint™ scintillation cocktail was added to each well and the plates were counted in a Packard TopCount® scintillation counter. In each competition study, test compounds were dosed at ten concentrations with triplicate determinations at each test concentration.

5-HT2C receptor = 5-HT2C receptor (Homo sapiens (Human), UniProt P28335); assay: IP accumulation assay, 5-HT2C; type: cell-based
5-HT2C receptor, sequence (P28335 33-458): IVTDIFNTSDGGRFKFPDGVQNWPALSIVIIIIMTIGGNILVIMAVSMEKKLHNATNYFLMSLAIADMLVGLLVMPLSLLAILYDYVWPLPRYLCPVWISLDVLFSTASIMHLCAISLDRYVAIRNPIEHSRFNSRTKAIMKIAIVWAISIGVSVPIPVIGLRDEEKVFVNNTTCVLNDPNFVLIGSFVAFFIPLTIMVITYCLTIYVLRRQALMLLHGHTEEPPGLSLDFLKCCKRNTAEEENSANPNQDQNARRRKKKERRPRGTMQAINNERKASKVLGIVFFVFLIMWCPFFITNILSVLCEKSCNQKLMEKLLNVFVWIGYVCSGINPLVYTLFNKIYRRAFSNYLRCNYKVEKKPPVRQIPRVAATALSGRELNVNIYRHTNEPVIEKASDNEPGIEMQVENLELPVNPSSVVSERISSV
Protocol: (§1) HEK293 cells expressing recombinant 5-HT2 receptors were added to sterile poly-D-lysine-coated 96-well microtiter plates (35,000 cells/well) and labeled with 0.6 μCi/well of [^3H]inositol in myoinositol-free DMEM for 18 h. Unincorporated [^3H]inositol was removed by aspiration and replaced with fresh myoinositol-free DMEM supplemented with LiCl (10 mM final) and pargyline (10 μM final). Serially diluted test compounds were then added and incubation was conducted for 2 h at 37° C. (5-HT2B, and 5-HT2A) and RT (5-HT2C). Incubations were then terminated by lysing cells with the addition of ice-cold 0.1 M formic acid followed by freezing at −80° C. After thawing, total [^3H]inositol phosphates were resolved from [^3H]inositol using AG1-X8 ion exchange resin (Bio-Rad) and [^3H]inositol phosphates were measured by scintillation counting using a Perkin Elmer TopCount® scintillation counter. All EC50 determinations were performed using 10 different concentrations and triplicate determinations were made at each test concentration.

5-HT2B receptor = 5-HT2B receptor (Homo sapiens (Human), UniProt P41595); assay: IP accumulation assay, 5-HT2B; type: cell-based
5-HT2B receptor, sequence (P41595 whole entry): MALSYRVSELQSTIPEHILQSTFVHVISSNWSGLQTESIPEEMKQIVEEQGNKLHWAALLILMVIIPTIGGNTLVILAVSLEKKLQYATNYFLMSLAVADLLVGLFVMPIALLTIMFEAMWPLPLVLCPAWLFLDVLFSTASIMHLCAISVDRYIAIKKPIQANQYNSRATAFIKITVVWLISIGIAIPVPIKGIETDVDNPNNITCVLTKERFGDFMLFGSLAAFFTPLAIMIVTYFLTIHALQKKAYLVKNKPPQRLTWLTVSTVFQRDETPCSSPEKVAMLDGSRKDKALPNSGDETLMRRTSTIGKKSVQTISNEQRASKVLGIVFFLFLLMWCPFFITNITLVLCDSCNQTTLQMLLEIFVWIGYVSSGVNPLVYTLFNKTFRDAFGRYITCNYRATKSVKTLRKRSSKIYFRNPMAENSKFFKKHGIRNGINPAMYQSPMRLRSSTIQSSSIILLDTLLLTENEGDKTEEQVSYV
Protocol: as §1

5-HT2A receptor [2] = biological target: T1, 5-HT2A receptor; assay: IP accumulation assay, 5-HT2A; type: cell-based
Protocol: as §1

[3] = IP accumulation, HEK293 cells, 2 h at RT, read-out: EC50 5HT2C
[4] = IP accumulation, HEK293 cells, 2 h at 37° C., read-out: EC50 5HT2B
[5] = IP accumulation, HEK293 cells, 2 h at 37° C., read-out: EC50 5HT2A

T1 sequence (P28223 whole entry): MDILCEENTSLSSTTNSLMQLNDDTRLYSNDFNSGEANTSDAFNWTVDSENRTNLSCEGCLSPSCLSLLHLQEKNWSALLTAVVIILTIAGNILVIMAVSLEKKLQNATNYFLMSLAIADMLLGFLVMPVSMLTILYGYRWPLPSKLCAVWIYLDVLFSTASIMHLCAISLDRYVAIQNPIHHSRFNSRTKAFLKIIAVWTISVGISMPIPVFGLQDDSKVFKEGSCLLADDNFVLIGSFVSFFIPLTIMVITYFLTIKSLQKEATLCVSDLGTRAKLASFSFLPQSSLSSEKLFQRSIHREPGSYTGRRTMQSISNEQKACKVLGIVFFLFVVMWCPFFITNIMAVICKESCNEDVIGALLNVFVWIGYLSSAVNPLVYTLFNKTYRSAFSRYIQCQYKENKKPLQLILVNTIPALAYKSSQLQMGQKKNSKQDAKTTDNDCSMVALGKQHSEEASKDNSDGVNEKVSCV

SMILES	EC50 (5-HT2C receptor; [3]) [µM]	EC50 (5-HT2B receptor; [4]) [µM]	EC50 (5-HT2A receptor [2]) [µM]	further results
CC1CC2CNCCN2c2ncccc21 (stereo not drawn) [Compound 158, 5-methyl-6,6a,7,8,9,10-hexahydro-5H-pyrazino[1,2-a][1,8]naphthyridine]				Ki (5-HT2A receptor [1]): 1.08 µM
CCCC(=O)Nc1ccnc2c1CC[C@@H]1CNCCN21 [Compound 125, (R)-N-(6,6a,7,8,9,10-hexahydro-5H-pyrazino[1,2-a][1,8]naphthyridin-4-yl)butyramide]	100	≥ 100	≥ 100	
CCc1c(CC2CCCC2)cnc2c1CC[C@@H]1CNCCN21 [Compound 171, (R)-3-(cyclopentylmethyl)-4-ethyl-6,6a,7,8,9,10-hexahydro-5H-pyrazino[1,2-a][1,8]naphthyridine]				Ki (5-HT2A receptor [1]): 0.351 µM
c1cc2c(cn1)CC[C@@H]1CNCCN21 [Compound 155, (R)-2,3,4,4a,5,6-hexahydro-1H-pyrazino[1,2-a][1,6]naphthyridine]			≥ 100	EC50 (5-HT2C receptor): 100 µM; EC50 (5-HT2B receptor): ≥ 100 µM
COc1ccc(-c2ccnc3c2CC[C@@H]2CNCCN32)cc1 [Compound 135, (R)-4-(4-methoxyphenyl)-6,6a,7,8,9,10-hexahydro-5H-pyrazino[1,2-a][1,8]naphthyridine]	5.41	≥ 100	≥ 100	
O=C(Nc1ccnc2c1CC[C@@H]1CNCCN21)c1cccc(F)c1F [Compound 138, (R)-2,3-difluoro-N-(6,6a,7,8,9,10-hexahydro-5H-pyrazino[1,2-a][1,8]naphthyridin-4-yl)benzamide]	5.82	≥ 100		EC50 (5-HT2A receptor [2]; [5]): ≥ 100 µM
CCc1c(COC(C)C)cnc2c1CC[C@@H]1CNCCN21 [Compound 163, (R)-4-ethyl-3-(isopropoxymethyl)-6,6a,7,8,9,10-hexahydro-5H-pyrazino[1,2-a][1,8]naphthyridine]				Ki (5-HT2A receptor [1]): 0.468 µM
c1cc(-c2ccc3c(c2)OCO3)c2c(n1)N1CCNC[C@H]1CC2 [Compound 101, (R)-4-(benzo[d][1,3]dioxol-5-yl)-6,6a,7,8,9,10-hexahydro-5H-pyrazino[1,2-a][1,8]naphthyridine]	7.51	≥ 100	≥ 100	
O=C(Nc1ccnc2c1CC[C@@H]1CNCCN21)c1ccccc1 [Compound 139, (R)-N-(6,6a,7,8,9,10-hexahydro-5H-pyrazino[1,2-a][1,8]naphthyridin-4-yl)benzamide]	100	≥ 100	≥ 100	
CCCc1cncc2c1CC[C@@H]1CNCCN21 [Compound 173, (R)-4-propyl-6,6a,7,8,9,10-hexahydro-5H-pyrazino[1,2-a][1,7]naphthyridine]				Ki (5-HT2A receptor [1]): 0.044 µM
FC(F)(F)Oc1cccc(-c2ccnc3c2CC[C@@H]2CNCCN32)c1 [Compound 105, (R)-4-(3-(trifluoromethoxy)phenyl)-6,6a,7,8,9,10-hexahydro-5H-pyrazino[1,2-a][1,8]naphthyridine]	3.07	≥ 100		EC50 (5-HT2A receptor [2]; [5]): ≥ 100 µM
O=C(Nc1ccnc2c1CC[C@@H]1CNCCN21)N1CCCC1 [Compound 131, (R)-N-(6,6a,7,8,9,10-hexahydro-5H-pyrazino[1,2-a][1,8]naphthyridin-4-yl)pyrrolidine-1-carboxamide]	100	≥ 100	≥ 100	
c1cc2c(c(CC3CCC3)n1)CC[C@@H]1CNCCN21 [Compound 154, (R)-7-(cyclobutylmethyl)-2,3,4,4a,5,6-hexahydro-1H-pyrazino[1,2-a][1,6]naphthyridine]			≥ 100	EC50 (5-HT2C receptor): 5.58 µM; EC50 (5-HT2B receptor): ≥ 100 µM
CNC(=O)c1ccnc2c1CC[C@@H]1CNCCN21 [Compound 102, (R)-N-methyl-6,6a,7,8,9,10-hexahydro-5H-pyrazino[1,2-a][1,8]naphthyridine-4-carboxamide]	100	≥ 100	≥ 100	
c1cc(C2CC2)c2c(n1)N1CCNC[C@H]1CC2 [Compound 151, (R)-4-cyclopropyl-6,6a,7,8,9,10-hexahydro-5H-pyrazino[1,2-a][1,8]naphthyridine]			0.435	EC50 (5-HT2C receptor): 0.00622 µM; EC50 (5-HT2B receptor): 0.015 µM
FC(F)(F)c1ccccc1-c1ccnc2c1CC[C@@H]1CNCCN21 [Compound 134, (R)-(2-(trifluoromethyl)phenyl)-6,6a,7,8,9,10-hexahydro-5H-pyrazino[1,2-a][1,8]naphthyridine]	5.61	1.73	≥ 100	
CSc1nc(Cl)c2c(n1)N1CCNC[C@H]1CC2 [Compound 169, (R)-4-chloro-2-(methylthio)-6,6a,7,8,9,10-hexahydro-5H-pyrazino[1′,2′:1,6]pyrido[2,3-d]pyrimidine]				Ki (5-HT2A receptor [1]): 0.129 µM
O=C(NCC(F)F)c1ccnc2c1CC[C@@H]1CNCCN21 [Compound 140, (R)-N-(2,2-difluoroethyl)-6,6a,7,8,9,10-hexahydro-5H-pyrazino[1,2-a][1,8]naphthyridine-4-carboxamide]	4.62	≥ 100	≥ 100	
CCc1c(C2CCC2)cnc2c1CC[C@@H]1CNCCN21 [Compound 166, (R)-3-cyclobutyl-4-ethyl-6,6a,7,8,9,10-hexahydro-5H-pyrazino[1,2-a][1,8]naphthyridine]				Ki (5-HT2A receptor [1]): 0.958 µM
c1cnc2c(c1)CC[C@@H]1CNCCN21 [Compound 148, (R)-6,6a,7,8,9,10-hexahydro-5H-pyrazino[1,2-a][1,8]naphthyridine]	0.0934	0.0612		EC50 (5-HT2A receptor [2]; [5]): 100 µM
c1cc2c(cn1)N1CCNC[C@H]1CC2 [Compound 153, (R)-6,6a,7,8,9,10-hexahydro-5H-pyrazino[1,2-a][1,7]naphthyridine]	0.329	0.779		EC50 (5-HT2A receptor [2]; [5]): 100 µM
CCOC(=O)Nc1ccnc2c1CC[C@@H]1CNCCN21 [Compound 123, (R)-ethyl(6,6a,7,8,9,10-hexahydro-5H-pyrazino[1,2-a][1,8]naphthyridin-4-yl)carbamate]	0.898	≥ 100	≥ 100	
CCCC(C)c1ccnc2c1CC[C@@H]1CNCCN21 (stereo partly drawn) [Compound 109, (6aR)-4-(pentan-2-yl)-6,6a,7,8,9,10-hexahydro-5H-pyrazino[1,2-a][1,8]naphthyridine]				Ki (5-HT2A receptor [1]): 0.0259 µM
O=C(Nc1ccnc2c1CC[C@@H]1CNCCN21)C1CC1 [Compound 141, (R)-N-(6,6a,7,8,9,10-hexahydro-5H-pyrazino[1,2-a][1,8]naphthyridin-4-yl)cyclopropanecarboxamide]	100	≥ 100	≥ 100	
c1cc(C2CCC2)c2c(n1)N1CCNC[C@H]1CC2 [Compound 149, (R)-4-cyclobutyl-6,6a,7,8,9,10-hexahydro-5H-pyrazino[1,2-a][1,8]naphthyridine]				Ki (5-HT2A receptor [1]): 0.0103 µM; EC50 (5-HT2A receptor [2]; [5]): 0.236 µM
Clc1ccnc2c1CC[C@@H]1CNCCN21 [Compound 150, (R)-4-chloro-6,6a,7,8,9,10-hexahydro-5H-pyrazino[1,2-a][1,8]naphthyridine]			1.33	EC50 (5-HT2C receptor): 0.00519 µM; EC50 (5-HT2B receptor): 0.0454 µM
O=C(Cc1ccccc1)Nc1ccnc2c1CC[C@@H]1CNCCN21 [Compound 124, (R)-N-(6,6a,7,8,9,10-hexahydro-5H-pyrazino[1,2-a][1,8]naphthyridin-4-yl)-2-phenylacetamide]	3.66	≥ 100	≥ 100	
